Measured values: ChEMBL document CHEMBL4177608, “Design and synthesis of benzimidazole-based Rho kinase inhibitors for the treatment of glaucoma” (Bioorg Med Chem, 2017)
Values after ≈ are worked out from the molar mass of the structure shown.

Experiments:
[1] = 1-Octanol/water partition coefficient, log P of compound at 2 mg after 24 hrs by spectrophotometry based shake flask method; assay type: physicochemical
[2] = Antioxidant activity assessed as DPPH free radical scavenging activity at 5 ug/ml after 30 mins by spectrophotometric analysis; assay type: functional
[3] = Antioxidant activity assessed as DPPH free radical scavenging activity at 25 ug/ml after 30 mins by spectrophotometric analysis; assay type: functional
[4] = Antioxidant activity assessed as DPPH free radical scavenging activity at 50 ug/ml after 30 mins by spectrophotometric analysis; assay type: functional
[5] = Antioxidant activity assessed as DPPH free radical scavenging activity at 100 ug/ml after 30 mins by spectrophotometric analysis; assay type: functional
[6] = Antioxidant activity assessed as DPPH free radical scavenging activity at 150 ug/ml after 30 mins by spectrophotometric analysis; assay type: functional
[7] = Antioxidant activity assessed as DPPH free radical scavenging activity at 200 ug/ml after 30 mins by spectrophotometric analysis; assay type: functional
[8] = Antioxidant activity assessed as DPPH free radical scavenging activity after 30 mins by spectrophotometric analysis; assay type: functional
[9] = species on record: Rattus norvegicus; assay: Reduction in intraocular pressure in Wistar rat model of dexamethasone-induced elevated IOP assessed as change in intraocular pressure at 1 % w/v after 0.5 hrs by tonometry (reference value: 0%); assay type: functional; design: scale not given: the % may be the effect or the level left
[10] = species on record: Rattus norvegicus; assay: Reduction in intraocular pressure in Wistar rat model of dexamethasone-induced elevated IOP assessed as change in intraocular pressure at 1 % w/v after 1 hr by tonometry (reference value: 0%); assay type: functional; design: scale not given: the % may be the effect or the level left
[11] = species on record: Rattus norvegicus; assay: Reduction in intraocular pressure in Wistar rat model of dexamethasone-induced elevated IOP assessed as change in intraocular pressure at 1 % w/v after 1.5 hrs by tonometry (reference value: 0%); assay type: functional; design: scale not given: the % may be the effect or the level left
[12] = species on record: Rattus norvegicus; assay: Reduction in intraocular pressure in Wistar rat model of dexamethasone-induced elevated IOP assessed as change in intraocular pressure at 1 % w/v after 2 hrs by tonometry (reference value: 0%); assay type: functional; design: scale not given: the % may be the effect or the level left
[13] = species on record: Rattus norvegicus; assay: Reduction in intraocular pressure in Wistar rat model of dexamethasone-induced elevated IOP assessed as change in intraocular pressure at 1 % w/v after 2.5 hrs by tonometry (reference value: 0%); assay type: functional; design: scale not given: the % may be the effect or the level left
[14] = species on record: Rattus norvegicus; assay: Reduction in intraocular pressure in Wistar rat model of dexamethasone-induced elevated IOP assessed as change in intraocular pressure at 1 % w/v after 3 hrs by tonometry (reference value: 0%); assay type: functional; design: scale not given: the % may be the effect or the level left
[15] = species on record: Rattus norvegicus; assay: Reduction in intraocular pressure in Wistar rat model of dexamethasone-induced elevated IOP assessed as change in intraocular pressure at 1 % w/v after 4 hrs by tonometry (reference value: 0%); assay type: functional; design: scale not given: the % may be the effect or the level left
[16] = species on record: Rattus norvegicus; assay: Reduction in intraocular pressure in Wistar rat model of dexamethasone-induced elevated IOP assessed as change in intraocular pressure at 1 % w/v after 5 hrs by tonometry (reference value: 0%); assay type: functional; design: scale not given: the % may be the effect or the level left
[17] = species on record: Rattus norvegicus; assay: Reduction in intraocular pressure in Wistar rat model of dexamethasone-induced elevated IOP assessed as change in intraocular pressure at 1 % w/v after 6 hrs by tonometry (reference value: 0%); assay type: functional; design: scale not given: the % may be the effect or the level left
[18] = species on record: Rattus norvegicus; assay: Reduction in intraocular pressure in Wistar rat model of dexamethasone-induced elevated IOP assessed as change in intraocular pressure in contralateral eye at 1 % w/v after 0.5 hrs by tonometry (reference value: 0%); assay type: ADME, organism-based; design: scale not given: the % may be the effect or the level left; details: in vivo, topical_or_ocular
[19] = species on record: Rattus norvegicus; assay: Reduction in intraocular pressure in Wistar rat model of dexamethasone-induced elevated IOP assessed as change in intraocular pressure in contralateral eye at 1 % w/v after 1 hr by tonometry (reference value: 0%); assay type: ADME, organism-based; design: scale not given: the % may be the effect or the level left; details: in vivo, topical_or_ocular
[20] = species on record: Rattus norvegicus; assay: Reduction in intraocular pressure in Wistar rat model of dexamethasone-induced elevated IOP assessed as change in intraocular pressure in contralateral eye at 1 % w/v after 1.5 hrs by tonometry (reference value: 0%); assay type: ADME, organism-based; design: scale not given: the % may be the effect or the level left; details: in vivo
[21] = species on record: Rattus norvegicus; assay: Reduction in intraocular pressure in Wistar rat model of dexamethasone-induced elevated IOP assessed as change in intraocular pressure in contralateral eye at 1 % w/v after 2 hrs by tonometry (reference value: 0%); assay type: ADME, organism-based; design: scale not given: the % may be the effect or the level left; details: in vivo
[22] = species on record: Rattus norvegicus; assay: Reduction in intraocular pressure in Wistar rat model of dexamethasone-induced elevated IOP assessed as change in intraocular pressure in contralateral eye at 1 % w/v after 2.5 hrs by tonometry (reference value: 0%); assay type: ADME, organism-based; design: scale not given: the % may be the effect or the level left; details: in vivo
[23] = species on record: Rattus norvegicus; assay: Reduction in intraocular pressure in Wistar rat model of dexamethasone-induced elevated IOP assessed as change in intraocular pressure in contralateral eye at 1 % w/v after 3 hrs by tonometry (reference value: 0%); assay type: ADME, organism-based; design: scale not given: the % may be the effect or the level left; details: in vivo
[24] = species on record: Rattus norvegicus; assay: Reduction in intraocular pressure in Wistar rat model of dexamethasone-induced elevated IOP assessed as change in intraocular pressure in contralateral eye at 1 % w/v after 4 hrs by tonometry (reference value: 0%); assay type: ADME, organism-based; design: scale not given: the % may be the effect or the level left; details: in vivo
[25] = species on record: Rattus norvegicus; assay: Reduction in intraocular pressure in Wistar rat model of dexamethasone-induced elevated IOP assessed as change in intraocular pressure in contralateral eye at 1 % w/v after 5 hrs by tonometry (reference value: 0%); assay type: ADME, organism-based; design: scale not given: the % may be the effect or the level left; details: in vivo
[26] = species on record: Rattus norvegicus; assay: Reduction in intraocular pressure in Wistar rat model of dexamethasone-induced elevated IOP assessed as change in intraocular pressure in contralateral eye at 1 % w/v after 6 hrs by tonometry (reference value: 0%); assay type: ADME, organism-based; design: scale not given: the % may be the effect or the level left; details: in vivo
[27] = species on record: Rattus norvegicus; assay: Reduction in intraocular pressure in Wistar rat model of dexamethasone-induced elevated IOP assessed as onset time for reduction in intraocular pressure at 1 % w/v by tonometry; assay type: functional
[28] = species on record: Rattus norvegicus; assay: Reduction in intraocular pressure in Wistar rat model of dexamethasone-induced elevated IOP assessed as peak effect time for reduction in intraocular pressure at 1 % w/v by tonometry; assay type: functional, organism-based
[29] = species on record: Rattus norvegicus; assay: Reduction in intraocular pressure in Wistar rat model of dexamethasone-induced elevated IOP assessed as reduction in intraocular pressure at peak effect time at 1 % w/v by tonometry; assay type: functional; design: scale not given: the % may be the effect or the level left

| logP at 24 h [1] | IC50 [8] | Activity [18] | Activity [19] | Activity [20] | Compound | Activity [2] | Activity [3] | Activity [4] | Activity [5] | Activity [6] | Activity [7] | Activity [9] | Activity [10] | Activity [11] | Activity [12] | Activity [13] | Activity [14] | Activity [15] | Activity [16] | Activity [17] | further results |
| --- | --- | --- | --- | --- | --- | --- | --- | --- | --- | --- | --- | --- | --- | --- | --- | --- | --- | --- | --- | --- | --- |
| 1.05 | 69.97 µg/mL (≈ 208 µM) | 0.85% | 1.15% | 2% | O=C(CN1CCN(c2ccccn2)CC1)Nc1nc2ccccc2[nH]1 | 30.8% | 40.9% | 50% | 57.3% | 69.1% | 76.2% | 4% | 7% | 10% | 15.87% | 10.62% | 7.82% | 5.05% | 2.87% | 0.65% | Activity [21]: 4%; Activity [22]: 1.07%; Activity [23]: 0.65%; Activity [24]: 0%; Activity [25]: 0%; Activity [26]: 0%; Time [27]: 0.5 h; Tmax [28]: 2 h; Activity [29]: 51.38% |
| 1.29 | 165.52 µg/mL (≈ 493 µM) | 1.97% | 3.25% | 4.12% | O=C(CN1CCN(c2ccccc2)CC1)Nc1nc2ccccc2[nH]1 | 4.62% | 11.5% | 24.1% | 32.2% | 40.6% | 62.1% | 2.55% | 4% | 7.75% | 11% | 13.5% | 12.18% | 7.77% | 1.33% | 0.27% | Activity [21]: 5%; Activity [22]: 5.65%; Activity [23]: 3.6%; Activity [24]: 1.55%; Activity [25]: 0%; Activity [26]: 0%; Time [27]: 0.5 h; Tmax [28]: 2.5 h; Activity [29]: 45.73% |
| 1.73 | – | 0.97% | 1.95% | 3.3% | Cl.O=S(=O)(c1cccc2cnccc12)N1CCCNCC1 [FASUDIL HYDROCHLORIDE] | – | – | – | – | – | – | 4.62% | 5.4% | 10.17% | 16.67% | 9.71% | 9% | 7.8% | 3.42% | 0.65% | Activity [21]: 5.57%; Activity [22]: 4.62%; Activity [23]: 1.85%; Activity [24]: 0.3%; Activity [25]: 0%; Activity [26]: 0%; Time [27]: 0.5 h; Tmax [28]: 2 h; Activity [29]: 54.84% |
| – | 15.74 µg/mL (≈ 89.4 µM) | – | – | – | O=C1O[C@H]([C@@H](O)CO)C(O)=C1O [ASCORBIC ACID] | 39.5% | 54.9% | 62.5% | 79.4% | 92.9% | 97.9% | – | – | – | – | – | – | – | – | – | – |
| 1.89 | 148.39 µg/mL (≈ 408 µM) | 1.23% | 2.07% | 2.9% | O=C(CN1CCN(CCc2ccccc2)CC1)Nc1nc2ccccc2[nH]1 | 8.11% | 13.5% | 22.3% | 38.1% | 51.8% | 62.9% | 2.53% | 5.52% | 8.97% | 10.17% | 11.95% | 7.1% | 3.76% | 0.83% | 0.4% | Activity [21]: 3.63%; Activity [22]: 2.43%; Activity [23]: 1.67%; Activity [24]: 0.83%; Activity [25]: 0.43%; Activity [26]: 0%; Time [27]: 0.5 h; Tmax [28]: 2 h; Activity [29]: 37.15% |
| 1.85 | 107.77 µg/mL (≈ 319 µM) | 0.95% | 1.85% | 2.05% | O=C(CN1CCN(c2ncccn2)CC1)Nc1nc2ccccc2[nH]1 | 8.77% | 20.4% | 31% | 46.5% | 68.4% | 81.8% | 3.5% | 7.42% | 10.92% | 15.45% | 11.77% | 9.1% | 5.62% | 3.15% | 0.35% | Activity [21]: 3.97%; Activity [22]: 2.1%; Activity [23]: 0.42%; Activity [24]: 0%; Activity [25]: 0%; Activity [26]: 0%; Time [27]: 0.5 h; Tmax [28]: 2 h; Activity [29]: 50% |
| 0.97 | 132.65 µg/mL (≈ 363 µM) | 1.27% | 2.1% | 4.1% | COc1ccccc1N1CCN(CC(=O)Nc2nc3ccccc3[nH]2)CC1 | 10.8% | 21.3% | 35.7% | 43.2% | 55.2% | 64.5% | 4.2% | 5.37% | 9.48% | 16.5% | 11.02% | 7.35% | 4.53% | 1.73% | 0.9% | Activity [21]: 4.77%; Activity [22]: 2.5%; Activity [23]: 1.7%; Activity [24]: 0%; Activity [25]: 0%; Activity [26]: 0%; Time [27]: 0.5 h; Tmax [28]: 2.5 h; Activity [29]: 49.92% |
| 2.65 | 144.19 µg/mL (≈ 395 µM) | 1.2% | 2.07% | 2.83% | COc1ccc(N2CCN(CC(=O)Nc3nc4ccccc4[nH]3)CC2)cc1 | 7.24% | 13.3% | 25.8% | 38.9% | 53.2% | 63.7% | 3.8% | 5.67% | 6.15% | 9.42% | 15.32% | 10.08% | 7% | 3.37% | 1.33% | Activity [21]: 3.57%; Activity [22]: 3.97%; Activity [23]: 2%; Activity [24]: 0.43%; Activity [25]: 0%; Activity [26]: 0%; Time [27]: 0.5 h; Tmax [28]: 2.5 h; Activity [29]: 46.92% |
